Laboratory results from patent US20250129135A1, “Multi-Agonist and Use Thereof” (priority 2021, published 2025).
Where two headings read alike, the source gives them in different places. Starred links: 1 amine or outer side, 2 acyl side, 3 side chain; linkers in the order of their positions; H or OH if unused. Non-standard residues stand in square brackets, D forms with d. Residues, ends and D or L forms follow the SMILES beside them. Groups on a side chain read outwards from the residue. *: point of attachment. C20 diacid = O=C(O)CCCCCCCCCCCCCCCCCCC(=O)*; αMePhe(2-F) = C[C@](N)(Cc1ccccc1F)C(=O)O; γGlu = O=C(O)[C@H](CCC(=O)[*:2])N[*:1]; αMeF = C[C@](N)(Cc1ccccc1)C(=O)O; αMeL = CC(C)C[C@](C)(N)C(=O)O; AEEA = NCCOCCOCC(=O)O; Ac3c = NC1(C(=O)O)CC1; Aib = CC(C)(N)C(=O)O

Legend:
Human GIP R = molecular target: T1, Human GIP R (Homo sapiens, UniProt P48546); assay: cAMP (HTRF) activity in CHO cells stably overexpressing GIP receptor; type: cell-based; conditions: for Human GIP R Rel. A (Relative Activity): EC50 of human GIP / EC50 of compound; for EC50: stable transfected cell cAMP activity, at least 3 independent tests
T1 construct: expressed in transfected cells; host or cells: CHO
T1 sequence (P48546 22-466): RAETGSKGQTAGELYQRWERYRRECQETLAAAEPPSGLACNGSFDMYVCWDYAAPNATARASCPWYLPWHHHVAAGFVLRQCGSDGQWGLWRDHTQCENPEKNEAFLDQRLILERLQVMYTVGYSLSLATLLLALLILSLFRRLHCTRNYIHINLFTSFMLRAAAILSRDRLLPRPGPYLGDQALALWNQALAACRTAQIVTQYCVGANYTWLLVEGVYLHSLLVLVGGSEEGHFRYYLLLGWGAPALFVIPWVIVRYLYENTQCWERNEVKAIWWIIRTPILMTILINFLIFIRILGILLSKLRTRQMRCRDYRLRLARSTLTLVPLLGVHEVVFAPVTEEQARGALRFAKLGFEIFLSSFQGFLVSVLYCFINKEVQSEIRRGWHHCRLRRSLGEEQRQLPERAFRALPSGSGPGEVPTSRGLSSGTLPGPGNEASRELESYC
Experimental: (§1) By measuring the cAMP signal response levels of the aforementioned cells, the agonistic activity of individual compound towards the corresponding receptor was determined. The intracellular cAMP content was measured using reagent kit available from Cisbio Corp. based on HTRF (homogeneous time-resolved fluorescence) technology.
(§2) The cell fluid was transferred to 10 ml of HBSS for resuspension, and centrifuged at 1000 rpm for 5 minutes at room temperature.
(§3) 10 μL cell suspension was added to each well in the 384 well plate. […] Using the ECHO liquid transfer system, 100 nL of the prepared compound solution was added to the corresponding cell suspensions in the 384 well plate, rotated and shaken at 1000 rpm for 1 minute to mix evenly, and then incubated at room temperature for 60 minutes. 10 μL of detection reagent was added to each well after drug incubation was completed, and incubation was performed in the kit at room temperature for 60 minutes. […] GraphPad Prism 5 plotting software was used to create compound concentration response curves and EC50 (nM) values was calculated.

Human GCG R = molecular target: T2, Human GCG R (Homo sapiens, UniProt P47871); assay: cAMP (HTRF) activity in HEK-293 cells stably overexpressing human GCG receptor; type: cell-based; conditions: EC50 of human GCG / EC50 of compound
T2 construct: expressed in transfected cells; host or cells: HEK-293
Experimental: as §1, §2, §3

RIN-m5F cells = type: cell-based, rat; conditions: for Rel. A (Relative Activity) on RIN-m5F: relative to GLP-1(7-37)
Experimental: This experiment measured the cAMP level produced by the compound on RIN-mF cells.
Frozen […] cells were placed in a 37° C. constant temperature water bath for rapid thawing and recovery. The cell solution was transferred to 10 ml of HBSS for resuspension, and centrifuged at 1000 rpm for 5 minutes at room temperature.
10 μL cell suspension was added to each well in the 384 well plate. […] Using the ECHO liquid transfer system, 100 nL of the prepared compound solution was added to the corresponding cell suspensions in the 384 well plate, rotated and shaken at 1000 rpm for 1 minute to mix evenly, and then incubated at room temperature for 60 minutes. 10 μL of detection reagent was added to each wells after drug incubation was completed, and incubation was performed for 60 minutes.

3T3-L1 adipocytes = conditions: for Rel. A (Relative Activity) on 3T3-L1 adipocyte: relative to GIP
Experimental: Mouse 3T3-L1 precursor adipocytes can be induced to differentiate into mature adipocytes. […] After the cells became full and contacted with each other, DMEM differentiation medium containing 20% FBS, 0.5 mM IBMX, 0.4 ug/mL dexamethasone, and 5 ug/mL insulin was used to induce differentiation of 3T3-L1 adipocyte. After 5 days of induction and cultivation, DMEM medium containing […], 4 ug/ml insulin, and 10 uM rosiglitazone was used to continue induction and cultivation for 3 days. Then, DMEM medium containing 10% FBS was used to continue cultivation for 2-3 days to induce mature 3T3-L1 adipocytes.
The cAMP level produced by the compound on 3T3-L1 adipocytes was determined in this experiment. The tested compound solution was diluted step by step according to a concentration gradient of 3 times, to obtain a total of 10 series of concentration solutions. The solutions were added to induced mature 3T3-L1 adipocytes and incubated at room temperature for 60 minutes. 10 μL detection reagent in the kit was added to each well after drug incubation, and incubated at room temperature for another 60 minutes. […] GraphPad Prism 5 plotting software was used to create compound concentration-effect curves and calculation was performed.

[1] = test system: human primary liver cells; type: cell-based; conditions: for Rel. A (Relative Activity) on human primary liver cells: relative to GCG
Experimental: The cAMP levels produced by compounds on human primary liver cells were determined in this experiment. Human primary liver cells were purchased from Lonza (cell product number HUCPG).
Frozen human primary liver cells were placed in a 37° C. constant temperature water bath for rapid thawing and recovery. The cell solution was transferred to 10 ml of HBSS for resuspension, and centrifuged at 1000 rpm for 5 minutes at room temperature.
10 μL cell suspension was added to each well in the 384 well plate. […] Using the ECHO liquid transfer system, 100 nL of the prepared compound solution was added to the corresponding cell suspensions in the 384 well plate, rotated and shaken at 1000 rpm for 1 minute to mix evenly, and then incubated at room temperature for 60 minutes. 10 μL of detection reagent was added to each well after drug incubation was completed, and incubation was performed for 60 minutes.

Human GLP-1R = Human GLP-1R (Homo sapiens, UniProt P43220); assay: cAMP (HTRF) activity in HEK-293 cells stably overexpressing human GLP-1 receptor; type: cell-based; parameters: expressed in transfected cells; host or cells: HEK-293; conditions: for Human GLP-1R Rel. A (Relative Activity): EC50 of human GLP-1 (7-37) / EC50 of compound
Experimental: as §1, §2, §3

T2 sequence (P47871 26-477): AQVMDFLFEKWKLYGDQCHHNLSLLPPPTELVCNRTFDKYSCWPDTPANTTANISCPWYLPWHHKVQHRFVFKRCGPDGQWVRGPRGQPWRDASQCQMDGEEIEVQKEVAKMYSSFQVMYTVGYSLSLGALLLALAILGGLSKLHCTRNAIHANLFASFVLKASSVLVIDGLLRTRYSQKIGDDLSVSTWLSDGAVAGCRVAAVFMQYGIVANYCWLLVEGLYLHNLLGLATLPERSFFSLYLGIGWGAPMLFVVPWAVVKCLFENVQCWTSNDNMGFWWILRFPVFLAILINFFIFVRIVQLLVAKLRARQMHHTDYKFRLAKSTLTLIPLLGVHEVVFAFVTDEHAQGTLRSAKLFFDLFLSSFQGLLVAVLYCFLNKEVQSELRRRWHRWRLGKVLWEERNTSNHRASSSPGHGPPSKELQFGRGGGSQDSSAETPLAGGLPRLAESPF
Chain of Human GLP-1R (P43220 24-463): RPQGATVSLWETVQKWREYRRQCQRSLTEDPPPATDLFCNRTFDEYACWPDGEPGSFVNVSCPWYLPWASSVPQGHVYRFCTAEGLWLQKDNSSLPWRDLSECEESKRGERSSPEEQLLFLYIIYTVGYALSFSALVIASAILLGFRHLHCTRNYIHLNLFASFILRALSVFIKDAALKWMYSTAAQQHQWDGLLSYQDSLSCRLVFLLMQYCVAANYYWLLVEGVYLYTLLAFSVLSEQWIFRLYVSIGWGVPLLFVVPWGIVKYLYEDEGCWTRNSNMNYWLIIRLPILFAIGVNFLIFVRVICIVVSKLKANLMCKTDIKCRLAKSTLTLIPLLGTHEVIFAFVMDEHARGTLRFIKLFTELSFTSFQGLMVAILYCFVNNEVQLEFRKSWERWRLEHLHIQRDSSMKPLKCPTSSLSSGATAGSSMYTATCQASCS

Compound	Human GIP R Rel. A (Relative Activity) (Human GIP R)	Human GCG R Rel. A (Relative Activity) (Human GCG R)	EC50 (RIN-m5F cells)	Rel. A (Relative Activity) on RIN-m5F (RIN-m5F cells)	EC50 (3T3-L1 adipocytes)	Rel. A (Relative Activity) on 3T3-L1 adipocyte (3T3-L1 adipocytes)	EC50 [1]	Rel. A (Relative Activity) on human primary liver cells [1]	Human GLP-1R Rel. A (Relative Activity) (Human GLP-1R)	EC50 (Human GLP-1R; stable transfected cell cAMP activity, at least 3 independent tests)	EC50 (Human GIP R)	EC50 (RIN-m5F cells; cAMP, at least 3 independent tests, read-out: EC50 on RIN-m5F rat pancreatic islet tumor cells)
CC[C@H](C)[C@H](NC(=O)[C@H](Cc1ccccc1)NC(=O)[C@H](C)NC(=O)C(C)(C)NC(=O)[C@H](CCC(N)=O)NC(=O)[C@H](C)NC(=O)[C@H](CCCCNC(=O)COCCOCCNC(=O)COCCOCCNC(=O)CC[C@H](NC(=O)CCCCCCCCCCCCCCCCCCC(=O)O)C(=O)O)NC(=O)[C@H](CCCCN)NC(=O)[C@H](CC(=O)O)NC(=O)[C@H](CC(C)C)NC(=O)[C@H](CC(C)C)NC(=O)[C@@H](NC(=O)[C@H](CO)NC(=O)[C@H](Cc1ccc(O)cc1)NC(=O)[C@H](CC(=O)O)NC(=O)[C@H](CO)NC(=O)[C@@H](NC(=O)[C@](C)(Cc1ccccc1)NC(=O)[C@@H](NC(=O)CNC(=O)[C@H](CCC(N)=O)NC(=O)C(C)(C)NC(=O)[C@@H](N)Cc1ccc(O)cc1)[C@@H](C)O)[C@@H](C)O)[C@@H](C)CC)C(=O)N[C@@H](CCC(=O)O)C(=O)N[C@@H](Cc1ccccc1)C(=O)N[C@@H](CC(C)C)C(=O)N[C@@H](CC(C)C)C(=O)N[C@@H](CCC(=O)O)C(=O)N[C@@H](CO)C(=O)N[C@@H](Cc1c[nH]cn1)C(=O)N1CCC[C@H]1C(=O)N[C@@H](CO)C(=O)N[C@@H](CO)C(=O)NC(C)(C)C(=O)N[C@@H](Cc1c[nH]cn1)C(=O)N1CCC[C@H]1C(=O)N1CCC[C@H]1C(=O)NC1(C(=O)N[C@@H](CO)C(N)=O)CC1 [Compound 42] (H-Y[Aib]QGT[αMeF]TSDYSILLDKK([AEEA-AEEA-γGlu-C20 diacid])AQ[Aib]AFIEFLLESHPSS[Aib]HPP[Ac3c]S-NH2; N-terminus assumed)	258.57%	11.52%	0.359 nM	287.47%	2.73 nM	139.17%	1.36 nM	285.26%	488.89%	9 pM	–	–
CC[C@H](C)[C@H](NC(=O)[C@H](Cc1ccccc1)NC(=O)[C@H](C)NC(=O)C(C)(C)NC(=O)[C@H](CCC(N)=O)NC(=O)[C@H](C)NC(=O)[C@H](CCCCNC(=O)COCCOCCNC(=O)COCCOCCNC(=O)CC[C@H](NC(=O)CCCCCCCCCCCCCCCCCCC(=O)O)C(=O)O)NC(=O)[C@H](CCCCN)NC(=O)[C@H](CC(=O)O)NC(=O)[C@H](CC(C)C)NC(=O)[C@](C)(CC(C)C)NC(=O)[C@@H](NC(=O)[C@H](CO)NC(=O)[C@H](Cc1ccc(O)cc1)NC(=O)[C@H](CC(=O)O)NC(=O)[C@H](CO)NC(=O)[C@@H](NC(=O)[C@](C)(Cc1ccccc1)NC(=O)[C@@H](NC(=O)CNC(=O)[C@H](CCC(N)=O)NC(=O)C(C)(C)NC(=O)[C@@H](N)Cc1ccc(O)cc1)[C@@H](C)O)[C@@H](C)O)[C@@H](C)CC)C(=O)N[C@@H](CCC(=O)O)C(=O)N[C@@H](Cc1ccccc1)C(=O)N[C@@H](CC(C)C)C(=O)N[C@@H](CC(C)C)C(=O)N[C@@H](CCC(=O)O)C(=O)NCC(=O)N[C@@H](CCCNC(=N)N)C(=O)N1CCC[C@H]1C(=O)N[C@@H](CO)C(=O)N[C@@H](CO)C(=O)NC(C)(C)C(=O)N[C@@H](Cc1c[nH]cn1)C(=O)N1CCC[C@H]1C(=O)N1CCC[C@H]1C(=O)N1CCC[C@H]1C(=O)N[C@@H](CO)C(N)=O [Compound 37] (H-Y[Aib]QGT[αMeF]TSDYSI[αMeL]LDKK([AEEA-AEEA-γGlu-C20 diacid])AQ[Aib]AFIEFLLEGRPSS[Aib]HPPPS-NH2; N-terminus assumed)	1206.67%	69.51%	0.176 nM	586.36%	2.49 nM	152.87%	1.04 nM	373.06%	157.14%	–	0.015 nM	–
CC[C@H](C)[C@H](NC(=O)[C@H](Cc1ccccc1)NC(=O)[C@H](C)NC(=O)C(C)(C)NC(=O)[C@H](CCC(N)=O)NC(=O)[C@H](C)NC(=O)[C@H](CCCCNC(=O)COCCOCCNC(=O)COCCOCCNC(=O)CC[C@H](NC(=O)CCCCCCCCCCCCCCCCCCC(=O)O)C(=O)O)NC(=O)[C@H](CCCCN)NC(=O)[C@H](CC(=O)O)NC(=O)[C@H](CC(C)C)NC(=O)[C@](C)(CC(C)C)NC(=O)[C@@H](NC(=O)[C@H](CO)NC(=O)[C@H](Cc1ccc(O)cc1)NC(=O)[C@H](CC(=O)O)NC(=O)[C@H](CO)NC(=O)[C@@H](NC(=O)[C@](C)(Cc1ccccc1F)NC(=O)[C@@H](NC(=O)CNC(=O)[C@H](CCC(N)=O)NC(=O)C(C)(C)NC(=O)[C@@H](N)Cc1ccc(O)cc1)[C@@H](C)O)[C@@H](C)O)[C@@H](C)CC)C(=O)N[C@@H](CCC(=O)O)C(=O)N[C@@H](Cc1ccccc1)C(=O)N[C@@H](CC(C)C)C(=O)N[C@@H](CC(C)C)C(=O)N[C@@H](CCC(=O)O)C(=O)N[C@H](C(=O)N[C@@H](CCCNC(=N)N)C(=O)N1CCC[C@H]1C(=O)N[C@@H](CO)C(=O)N[C@@H](CO)C(=O)NC(C)(C)C(=O)N[C@@H](Cc1c[nH]cn1)C(=O)N1CCC[C@H]1C(=O)N1CCC[C@H]1C(=O)N1CCC[C@H]1C(=O)N[C@@H](CO)C(N)=O)[C@@H](C)O [Compound 39] (H-Y[Aib]QGT[αMePhe(2-F)]TSDYSI[αMeL]LDKK([AEEA-AEEA-γGlu-C20 diacid])AQ[Aib]AFIEFLLETRPSS[Aib]HPPPS-NH2)	1206.67%	37.25%	0.843 nM	122.42%	2.05 nM	185.83%	2.03 nM	191.77%	56.41%	–	0.015 nM	–
GLP-1(7-37) [reference compound]	–	–	–	100.00%	–	–	–	–	100.00%	–	–	1.03 nM
